{"source": "patent US20240228504A1", "about": "“SUBSTITUTED TRICYCLIC AMIDES, ANALOGUES THEREOF, AND METHODS USING SAME” (Arbutus Biopharma Corporation, priority 2020, published 2024)", "tested_on": "HBV rcDNA in HepDE19 cells", "experiment": "HepDE19 assay with bDNA quantitation of HBV rcDNA", "assay_type": "cell-based, hepatitis B virus", "conditions": "Hepatitis B virus, HepDE19, HepDE19 assay, inhibition of rcDNA formation, bDNA quantitation; read-out: DE-19bDNA EC50"}
{"smiles": "CN(C(=O)c1cc2cc(F)c(F)cc2[nH]1)[C@@H]1COCc2c1c1cc(F)c(F)cc1c(=O)n2C", "note": "[Compound 240, (S)-N-(8,9-Difluoro-5-methyl-6-oxo-1,4,5,6-tetrahydro-2H-pyrano[3,4-c]isoquinolin-1-yl)-5,6-difluoro-N-methyl-1H-indole-2-carboxamide]", "values": [{"measurement": "EC50", "result": 10, "unit": "nM"}]}
{"smiles": "COc1nc2c(c3cc(F)c(F)cc13)[C@H](N(C)C(=O)c1cc3cc(F)c(F)cc3[nH]1)COC2", "note": "[Compound 241, (S)-N-(8,9-Difluoro-6-methoxy-1,4-dihydro-2H-pyrano[3,4-c]isoquinolin-1-yl)-5,6-difluoro-N-methyl-1H-indole-2-carboxamide]", "values": [{"measurement": "EC50", "result": 30, "unit": "nM"}]}
{"smiles": "CN(C(=O)c1cc2n(c1)CCCC2)[C@@H]1COCc2[nH]c(=O)c3cc(F)c(F)cc3c21", "note": "[Compound 242, (S)-N-(8,9-Difluoro-6-oxo-1,4,5,6-tetrahydro-2H-pyrano[3,4-c]isoquinolin-1-yl)-N-methyl-5,6,7,8-tetrahydroindolizine-2-carboxamide]", "values": [{"measurement": "EC50", "result": 110, "unit": "nM"}]}
{"smiles": "CN(C(=O)c1ccc(Br)c(F)c1F)[C@@H]1COCc2[nH]c(=O)c3cc(F)c(F)cc3c21", "note": "[Compound 244, (S)-4-Bromo-N-(8,9-difluoro-6-oxo-1,4,5,6-tetrahydro-2H-pyrano[3,4-c]isoquinolin-1-yl)-2,3-difluoro-N-methylbenzamide]", "values": [{"measurement": "EC50", "result": 80, "unit": "nM"}]}
{"smiles": "CN(C(=O)c1cc(F)c(Br)cc1F)[C@@H]1COCc2[nH]c(=O)c3cc(F)c(F)cc3c21", "note": "[Compound 245, (S)-4-Bromo-N-(8,9-difluoro-6-oxo-1,4,5,6-tetrahydro-2H-pyrano[3,4-c]isoquinolin-1-yl)-2,5-difluoro-N-methylbenzamide]", "values": [{"measurement": "EC50", "result": 170, "unit": "nM"}]}
{"smiles": "CN(C(=O)c1c(F)cc(Br)cc1F)[C@@H]1COCc2[nH]c(=O)c3cc(F)c(F)cc3c21", "note": "[Compound 246, (S)-4-Bromo-N-(8,9-difluoro-6-oxo-1,4,5,6-tetrahydro-2H-pyrano[3,4-c]isoquinolin-1-yl)-2,6-difluoro-N-methylbenzamide]", "values": [{"measurement": "EC50", "result": 1960, "unit": "nM"}]}
{"smiles": "CN(C(=O)c1ccc(C(F)(F)F)c(=O)[nH]1)[C@@H]1COCc2[nH]c(=O)c3cc(F)c(F)cc3c21", "note": "[Compound 247, (S)-N-(8,9-Difluoro-6-oxo-1,4,5,6-tetrahydro-2H-pyrano[3,4-c]isoquinolin-1-yl)-N-methyl-6-oxo-5-(trifluoromethyl)-1,6-dihydropyridine-2-carboxamide]", "values": [{"measurement": "EC50", "result": 3870, "unit": "nM"}]}
{"smiles": "CN(C(=O)c1ccc2ccccn12)[C@@H]1COCc2[nH]c(=O)c3cc(F)c(F)cc3c21", "note": "[Compound 248, (S)-N-(8,9-Difluoro-6-oxo-1,4,5,6-tetrahydro-2H-pyrano[3,4-c]isoquinolin-1-yl)-N-methylindolizine-3-carboxamide]", "values": [{"measurement": "EC50", "result": 5380, "unit": "nM"}]}
{"smiles": "CN(C(=O)c1ccc(-c2ccc(F)cc2)cc1)[C@@H]1COCc2[nH]c(=O)c3cc(F)c(F)cc3c21", "note": "[Compound 250, (S)-N-(8,9-Difluoro-6-oxo-1,4,5,6-tetrahydro-2H-pyrano[3,4-c]isoquinolin-1-yl)-4′-fluoro-N-methyl-[1,1′-biphenyl]-4-carboxamide]", "values": [{"measurement": "EC50", "result": 8100, "unit": "nM"}]}
{"smiles": "CN(C(=O)c1cc2cc(C(F)(F)F)ncc2[nH]1)[C@@H]1COCc2[nH]c(=O)c3cc(F)c(F)cc3c21", "note": "[Compound 251, (S)-N-(8,9-difluoro-6-oxo-1,4,5,6-tetrahydro-2H-pyrano[3,4-c]isoquinolin-1-yl)-N-methyl-5-(trifluoromethyl)-1H-pyrrolo[2,3-c]pyridine-2-carboxamide]", "values": [{"measurement": "EC50", "result": 230, "unit": "nM"}]}
{"smiles": "CN(C(=O)C(F)(F)c1cccc(Br)c1)[C@@H]1COCc2[nH]c(=O)c3cc(F)c(F)cc3c21", "note": "[Compound 252, (S)-2-(3-Bromophenyl)-N-(8,9-difluoro-6-oxo-1,4,5,6-tetrahydro-2H-pyrano[3,4-c]isoquinolin-1-yl)-2,2-difluoro-N-methylacetamide]", "values": [{"measurement": "EC50", "result": 7700, "unit": "nM"}]}
{"smiles": "CN(C(=O)C(F)(F)c1ccc(Br)cc1)[C@@H]1COCc2[nH]c(=O)c3cc(F)c(F)cc3c21", "note": "[Compound 253, (S)-2-(4-Bromophenyl)-N-(8,9-difluoro-6-oxo-1,4,5,6-tetrahydro-2H-pyrano[3,4-c]isoquinolin-1-yl)-2,2-difluoro-N-methylacetamide]", "values": [{"measurement": "EC50", "result": 8000, "unit": "nM"}]}
{"smiles": "CN(C(=O)c1cc2c(C(F)F)c(F)ccc2[nH]1)[C@@H]1COCc2[nH]c(=O)c3cc(F)c(F)cc3c21", "note": "[Compound 254, (S)-N-(8,9-Difluoro-6-oxo-1,4,5,6-tetrahydro-2H-pyrano[3,4-c]isoquinolin-1-yl)-4-(difluoromethyl)-5-fluoro-N-methyl-1H-indole-2-carboxamide]", "values": [{"measurement": "EC50", "result": 10, "unit": "nM"}]}
{"smiles": "CN(C(=O)c1ccn2ccccc12)[C@@H]1COCc2[nH]c(=O)c3cc(F)c(F)cc3c21", "note": "[Compound 261, (S)-N-(8,9-Difluoro-6-oxo-1,4,5,6-tetrahydro-2H-pyrano[3,4-c]isoquinolin-1-yl)-N-methylindolizine-1-carboxamide]", "values": [{"measurement": "EC50", "result": 6400, "unit": "nM"}]}
{"smiles": "CN(C(=O)c1ccc(-c2ccc(F)cc2)c(F)c1)[C@@H]1COCc2[nH]c(=O)c3cc(F)c(F)cc3c21", "note": "[Compound 262, (S)-N-(8,9-Difluoro-6-oxo-1,4,5,6-tetrahydro-2H-pyrano[3,4-c]isoquinolin-1-yl)-2,4′-difluoro-N-methyl-[1,1′-biphenyl]-4-carboxamide]", "values": [{"measurement": "EC50", "result": 17200, "unit": "nM"}]}
{"smiles": "CN(C(=O)c1cc(-c2ccc(F)cc2)on1)[C@@H]1COCc2[nH]c(=O)c3cc(F)c(F)cc3c21", "note": "[Compound 263, (S)-N-(8,9-Difluoro-6-oxo-1,4,5,6-tetrahydro-2H-pyrano[3,4-c]isoquinolin-1-yl)-5-(4-fluorophenyl)-N-methylisoxazole-3-carboxamide]", "values": [{"measurement": "EC50", "result": 14700, "unit": "nM"}]}
{"smiles": "CN(C(=O)c1cc2cccc(C(F)F)n2c1)[C@@H]1COCc2[nH]c(=O)c3cc(F)c(F)cc3c21", "note": "[Compound 266, (S)-N-(8,9-Difluoro-6-oxo-1,4,5,6-tetrahydro-2H-pyrano[3,4-c]isoquinolin-1-yl)-5-(difluoromethyl)-N-methylindolizine-2-carboxamide]", "values": [{"measurement": "EC50", "result": 20, "unit": "nM"}]}
{"smiles": "CN(C(=O)c1cc2nc(Br)ccc2[nH]1)[C@@H]1COCc2[nH]c(=O)c3cc(F)c(F)cc3c21", "note": "[Compound 268, (S)-5-Bromo-N-(8,9-difluoro-6-oxo-1,4,5,6-tetrahydro-2H-pyrano[3,4-c]isoquinolin-1-yl)-N-methyl-1H-pyrrolo[3,2-b]pyridine-2-carboxamide]", "values": [{"measurement": "EC50", "result": 1800, "unit": "nM"}]}
{"smiles": "CN(C(=O)C1Cc2ccccc21)[C@@H]1COCc2[nH]c(=O)c3cc(F)c(F)cc3c21", "note": "(stereo partly drawn) [Compound 269, N-((S)-8,9-Difluoro-6-oxo-1,4,5,6-tetrahydro-2H-pyrano[3,4-c]isoquinolin-1-yl)-N-methylbicyclo[4.2.0]octa-1(6),2,4-triene-7-carboxamide]", "values": [{"measurement": "EC50", "result": 18600, "unit": "nM"}]}
{"smiles": "CN(C(=O)C1(O)Cc2ccccc2C1)[C@@H]1COCc2[nH]c(=O)c3cc(F)c(F)cc3c21", "note": "[Compound 275, (S)-N-(8,9-Difluoro-6-oxo-1,4,5,6-tetrahydro-2H-pyrano[3,4-c]isoquinolin-1-yl)-2-hydroxy-N-methyl-2,3-dihydro-1H-indene-2-carboxamide]", "values": [{"measurement": "EC50", "result": 3840, "unit": "nM"}]}
{"smiles": "CN(C(=O)C1(O)Cc2cc(F)c(F)cc2C1)[C@@H]1COCc2[nH]c(=O)c3cc(F)c(F)cc3c21", "note": "[Compound 276, (S)-N-(8,9-Difluoro-6-oxo-1,4,5,6-tetrahydro-2H-pyrano[3,4-c]isoquinolin-1-yl)-5,6-difluoro-2-hydroxy-N-methyl-2,3-dihydro-1H-indene-2-carboxamide]", "values": [{"measurement": "EC50", "result": 1950, "unit": "nM"}]}
{"smiles": "Cc1cc2ccc(C(=O)N(C)[C@@H]3COCc4[nH]c(=O)c5cc(F)c(F)cc5c43)cn2c1", "note": "[Compound 277, (S)-N-(8,9-Difluoro-6-oxo-1,4,5,6-tetrahydro-2H-pyrano[3,4-c]isoquinolin-1-yl)-N,2-dimethylindolizine-6-carboxamide]", "values": [{"measurement": "EC50", "result": 420, "unit": "nM"}]}
{"smiles": "CN(C(=O)c1cc2sccc2[nH]1)[C@@H]1COCc2[nH]c(=O)c3cc(F)c(F)cc3c21", "note": "[Compound 278, (S)-N-(8,9-Difluoro-6-oxo-1,4,5,6-tetrahydro-2H-pyrano[3,4-c]isoquinolin-1-yl)-N-methyl-4H-thieno[3,2-b]pyrrole-5-carboxamide]", "values": [{"measurement": "EC50", "result": 20, "unit": "nM"}]}
{"smiles": "CN(C(=O)C1Cc2ccc(F)cc21)[C@@H]1COCc2[nH]c(=O)c3cc(F)c(F)cc3c21", "note": "(stereo partly drawn) [Compound 279, N-((S)-8,9-Difluoro-6-oxo-1,4,5,6-tetrahydro-2H-pyrano[3,4-c]isoquinolin-1-yl)-4-fluoro-N-methylbicyclo[4.2.0]octa-1(6),2,4-triene-7-carboxamide]", "values": [{"measurement": "EC50", "result": 9500, "unit": "nM"}]}
{"smiles": "CN(C(=O)c1cc2cc(F)c(F)cc2[nH]1)[C@@H]1COCc2nc(OCCN)c3cc(F)c(F)cc3c21", "note": "[Compound 280, (S)-N-(6-(2-aminoethoxy)-8,9-difluoro-1,4-dihydro-2H-pyrano[3,4-c]isoquinolin-1-yl)-5,6-difluoro-N-methyl-1H-indole-2-carboxamide]", "values": [{"measurement": "EC50", "result": 20, "unit": "nM"}]}
{"smiles": "CN(C(=O)C1CN(c2ccsc2)C1)[C@@H]1COCc2[nH]c(=O)c3cc(F)c(F)cc3c21", "note": "[Compound 282, (S)-N-(8,9-Difluoro-6-oxo-1,4,5,6-tetrahydro-2H-pyrano[3,4-c]isoquinolin-1-yl)-N-methyl-1-(thiophen-3-yl)azetidine-3-carboxamide]", "values": [{"measurement": "EC50", "result": 290, "unit": "nM"}]}
{"smiles": "CN(C(=O)c1ccc(-c2cccc(F)c2)cc1)[C@@H]1COCc2[nH]c(=O)c3cc(F)c(F)cc3c21", "note": "[Compound 283, (S)-N-(8,9-Difluoro-6-oxo-1,4,5,6-tetrahydro-2H-pyrano[3,4-c]isoquinolin-1-yl)-3′-fluoro-N-methyl-[1,1′-biphenyl]-4-carboxamide]", "values": [{"measurement": "EC50", "result": 4700, "unit": "nM"}]}
{"smiles": "CN(C(=O)C1CN(c2cscc2Br)C1)[C@@H]1COCc2[nH]c(=O)c3cc(F)c(F)cc3c21", "note": "[Compound 284, (S)-1-(4-Bromothiophen-3-yl)-N-(8,9-difluoro-6-oxo-1,4,5,6-tetrahydro-2H-pyrano[3,4-c]isoquinolin-1-yl)-N-methylazetidine-3-carboxamide]", "values": [{"measurement": "EC50", "result": 50, "unit": "nM"}]}
{"smiles": "CN(C(=O)c1ccc(-c2ccccc2F)cc1)[C@@H]1COCc2[nH]c(=O)c3cc(F)c(F)cc3c21", "note": "[Compound 285, (S)-N-(8,9-Difluoro-6-oxo-1,4,5,6-tetrahydro-2H-pyrano[3,4-c]isoquinolin-1-yl)-2′-fluoro-N-methyl-[1,1′-biphenyl]-4-carboxamide]", "values": [{"measurement": "EC50", "result": 19700, "unit": "nM"}]}
